Patent US20240216369A1, “THE USE OF A SPLICING MODULATOR FOR A TREATMENT SLOWING PROGRESSION OF HUNTINGTON'S DISEASE” (Novartis AG, priority 2019, published 2024)

Columns and labels:
mHTT = test: Mutant and total HTT multiplex HTRF assay in Q48 HTT human embryonic stem cell line: mHTT; type: cell-based; conditions: Q48 HTT hESC, 48 hours
Procedure: (§1) The multiplex assay is performed in human embryonic stem cells (hESCs) which have been derived by Genea Biocells from human blastocysts of HD donors. Cells are plated at a density of 10,000 cells/well into 384-well collagen coated plates and left to adhere for 24 hours, compounds 1 to 82 are then added to cells and incubated for 48 hours (37° C., 5% CO2), cells are then lysed and the contents split into a black 384-well plate.
(§2) The black plates have a combination of HTRF labeled monoclonal antibodies added which recognize discrete areas of the HTT protein, the 2B7-Tb “donor” antibody (0.2 ng/well) recognizes a sequence at the N-terminus of the protein, an MW1-Alexa488 “acceptor 1” antibody (30 ng/well) recognizes an area in the polyQ region, whereas a MAB2166-d2 “acceptor 2” antibody (6 ng/well) recognizes a sequence beyond the polyQ region. The 2B7 antibody was obtained from Coriell (CH02024), the MW1 antibody from Millipore (MABN2427), and the MAB2166 antibody from Millipore (1HU-4C8).
(§3) These detection reagents are incubated with the cell lysate at room temperature for 4-6 hours before having their fluorescence quantified at 615 nm (donor) and 535 nm and 665 nm (acceptor 1 and 2 respectively). The donor/acceptor ratio between these signals indicates the relative quantities of mHTT and tHTT proteins. As shown in the Table 1, compounds 1 to 82 as described therein and in Table 2, had the following pIC50 values.

tHTT = test: Mutant and total HTT multiplex HTRF assay in Q48 HTT human embryonic stem cell line: tHTT; type: cell-based; conditions: Q48 HTT hESC, 48 hours
Procedure: as §1, §2, §3

Row | Compound | Rating (based on mHTT potency) (mHTT) | mHTT pIC50 (mHTT) | tHTT pIC50 (tHTT)
1 | CN(c1ccc(-c2ccc(-c3cn[nH]c3)cc2O)nn1)C1CC(C)(C)NC(C)(C)C1 [Compound 1, 2-(6-(methyl(2,2,6,6-tetramethylpiperidin-4-yl)amino)pyridazin-3-yl)-5-(1H-pyrazol-4-yl)phenol] | ***** (a pIC50 value above 7.5 is indicated by five stars (*****)) | 7.75 | 7.8065
2 | CN(c1ccc(-c2cc3c(=O)n(C)ccc3cc2O)nn1)C1CC(C)(C)NC(C)(C)C1 [Compound 2, 6-hydroxy-2-methyl-7-(6-(methyl(2,2,6,6-tetramethylpiperidin-4-yl)amino)pyridazin-3-yl)isoquinolin-1(2H)-one] | ***** (a pIC50 value above 7.5 is indicated by five stars (*****)) | 7.73 | 7.6555
3 | CN(c1ccc(-c2ccc(-c3cn[nH]c3)cc2O)nn1)[C@H]1C[C@]2(C)CC[C@](C)(C1)N2 [Compound 3, 2-(6-(((1R,5S)-1,5-dimethyl-8-azabicyclo[3.2.1]octan-3-yl)(methyl)amino)pyridazin-3-yl)-5-(1H-pyrazol-4-yl)phenol] | ***** (a pIC50 value above 7.5 is indicated by five stars (*****)) | 7.717 | 7.609
4 | CN(c1ccc(-c2ccc(-n3ccc(N)n3)cc2O)nn1)C1CC(C)(C)NC(C)(C)C1 [Compound 4, 5-(3-amino-1H-pyrazol-1-yl)-2-(6-(methyl(2,2,6,6-tetramethylpiperidin-4-yl)amino)pyridazin-3-yl)phenol] | ***** (a pIC50 value above 7.5 is indicated by five stars (*****)) | 7.6 | 7.5845
5 | CN(c1ccc(-c2ccc(-c3ccn(C)c(=O)c3)cc2O)nn1)C1CC(C)(C)NC(C)(C)C1 [Compound 5, 4-(3-hydroxy-4-(6-(methyl(2,2,6,6-tetramethylpiperidin-4-yl)amino)pyridazin-3-yl)phenyl)-1-methylpyridin-2(1H)-one] | ***** (a pIC50 value above 7.5 is indicated by five stars (*****)) | 7.591 | 7.5935
6 | CN(c1nnc(-c2ccc(-c3ccc(=O)n(C)c3)cc2O)s1)C1CC(C)(C)NC(C)(C)C1 [Compound 6, 5-(3-hydroxy-4-(5-(methyl(2,2,6,6-tetramethylpiperidin-4-yl)amino)-1,3,4-thiadiazol-2-yl)phenyl)-1-methylpyridin-2(1H)-one] | ***** (a pIC50 value above 7.5 is indicated by five stars (*****)) | 7.585 | 7.493
7 | CC1(C)CC(Oc2ccc(-c3c(O)cc(-c4cn[nH]c4)cc3F)nn2)CC(C)(C)N1 [Compound 7, 3-fluoro-5-(1H-pyrazol-4-yl)-2-(6-((2,2,6,6-tetramethylpiperidin-4-yl)oxy)pyridazin-3-yl)phenol] | ***** (a pIC50 value above 7.5 is indicated by five stars (*****)) | 7.5265 | 7.51
8 | CN(c1ccc(-c2ccc(-c3ccnc(O)c3)cc2O)nn1)C1CC(C)(C)NC(C)(C)C1 [Compound 8, 4-(3-hydroxy-4-(6-(methyl(2,2,6,6-tetramethylpiperidin-4-yl)amino)pyridazin-3-yl)phenyl)pyridin-2-ol] | **** (a pIC50 value between 7.0 and 7.5 is indicated by four stars (****)) | 7.4855 | 7.4435
9 | CN(c1nnc(-c2c(O)cc(-c3cn[nH]c3)cc2Cl)s1)C1CC(C)(C)NC(C)(C)C1 [Compound 9, 3-chloro-2-(5-(methyl(2,2,6,6-tetramethylpiperidin-4-yl)amino)-1,3,4-thiadiazol-2-yl)-5-(1H-pyrazol-4-yl)phenol] | **** (a pIC50 value between 7.0 and 7.5 is indicated by four stars (****)) | 7.4435 | 7.353
10 | Cc1cc2cc(-c3ccc(N(C)C4CC(C)(C)NC(C)(C)C4)nn3)c(O)cc2c(C#N)n1 [Compound 10, 7-hydroxy-3-methyl-6-(6-(methyl(2,2,6,6-tetramethylpiperidin-4-yl)amino)pyridazin-3-yl)isoquinoline-1-carbonitrile] | **** (a pIC50 value between 7.0 and 7.5 is indicated by four stars (****)) | 7.4395 | 7.3875
11 | Cc1cc2cc(O)c(-c3ccc(N(C)C4CC(C)(C)NC(C)(C)C4)nn3)cc2c(C)n1 [Compound 11, 1,3-dimethyl-7-(6-(methyl(2,2,6,6-tetramethylpiperidin-4-yl)amino)pyridazin-3-yl)isoquinolin-6-ol] | **** (a pIC50 value between 7.0 and 7.5 is indicated by four stars (****)) | 7.3875 | 7.3965
12 | CC1(C)CC(Nc2ccc(-c3ccc(-n4cccn4)cc3O)nn2)CC(C)(C)N1 [Compound 12, 5-(1H-pyrazol-1-yl)-2-(6-((2,2,6,6-tetramethylpiperidin-4-yl)amino)pyridazin-3-yl)phenol] | **** (a pIC50 value between 7.0 and 7.5 is indicated by four stars (****)) | 7.379 | 7.2825
13 | CN(c1nnc(-c2ccc(-c3cn[nH]c3)cc2O)s1)C1CC(C)(C)NC(C)(C)C1 [Compound 13, 2-(5-(methyl(2,2,6,6-tetramethylpiperidin-4-yl)amino)-1,3,4-thiadiazol-2-yl)-5-(1H-pyrazol-4-yl)phenol] | **** (a pIC50 value between 7.0 and 7.5 is indicated by four stars (****)) | 7.3545 | 7.383
14 | CN(c1ccc(-c2cc(Cl)c(-c3cn[nH]c3)cc2O)nn1)C1CC(C)(C)NC(C)(C)C1 [Compound 14, 4-chloro-2-(6-(methyl(2,2,6,6-tetramethylpiperidin-4-yl)amino)pyridazin-3-yl)-5-(1H-pyrazol-4-yl)phenol] | **** (a pIC50 value between 7.0 and 7.5 is indicated by four stars (****)) | 7.35 | 7.389
15 | Cc1ccc2cc(O)c(-c3ccc(N(C)C4CC(C)(C)NC(C)(C)C4)nn3)cc2n1 [Compound 15, 2-methyl-7-(6-(methyl(2,2,6,6-tetramethylpiperidin-4-yl)amino)pyridazin-3-yl)quinolin-6-ol] | **** (a pIC50 value between 7.0 and 7.5 is indicated by four stars (****)) | 7.349 | 7.283
16 | CN(c1nnc(-c2ccc(-c3cnn(C)c3)cc2O)s1)C1CC(C)(C)NC(C)(C)C1 [Compound 16, 2-(5-(methyl(2,2,6,6-tetramethylpiperidin-4-yl)amino)-1,3,4-thiadiazol-2-yl)-5-(1-methyl-1H-pyrazol-4-yl)phenol] | **** (a pIC50 value between 7.0 and 7.5 is indicated by four stars (****)) | 7.3285 | 7.481
17 | Cc1cnc2cc(-c3ccc(N(C)C4CC(C)(C)NC(C)(C)C4)nn3)c(O)cc2c1 [Compound 17, 3-methyl-7-(6-(methyl(2,2,6,6-tetramethylpiperidin-4-yl)amino)pyridazin-3-yl)quinolin-6-ol] | **** (a pIC50 value between 7.0 and 7.5 is indicated by four stars (****)) | 7.2895 | 7.424
18 | CN(c1ccc(-c2ccc(-n3cccn3)cc2O)nn1)C1CC(C)(C)NC(C)(C)C1 [Compound 19, 2-(6-(methyl(2,2,6,6-tetramethylpiperidin-4-yl)amino)pyridazin-3-yl)-5-(1H-pyrazol-1-yl)phenol] | **** (a pIC50 value between 7.0 and 7.5 is indicated by four stars (****)) | 7.2235 | 7.178
19 | COc1cc(-c2cnn(C)c2)cc(O)c1-c1ccc(N(C)C2CC(C)(C)NC(C)(C)C2)nn1 [Compound 20, 3-methoxy-2-(6-(methyl(2,2,6,6-tetramethylpiperidin-4-yl)amino)pyridazin-3-yl)-5-(1-methyl-1H-pyrazol-4-yl)phenol] | **** (a pIC50 value between 7.0 and 7.5 is indicated by four stars (****)) | 7.22 | 7.106
20 | CN(c1ccc(-c2cc3ccc(C(N)=O)nc3cc2O)nn1)C1CC(C)(C)NC(C)(C)C1 [Compound 21, 7-hydroxy-6-(6-(methyl(2,2,6,6-tetramethylpiperidin-4-yl)amino)pyridazin-3-yl)quinoline-2-carboxamide] | **** (a pIC50 value between 7.0 and 7.5 is indicated by four stars (****)) | 7.203 | 7.221
21 | CN(c1nnc(-c2cc(F)c(-c3cn[nH]c3)cc2Cl)s1)C1CC(C)(C)NC(C)(C)C1 [Compound 22, 5-(2-chloro-5-fluoro-4-(1H-pyrazol-4-yl)phenyl)-N-methyl-N-(2,2,6,6-tetramethylpiperidin-4-yl)-1,3,4-thiadiazol-2-amine] | **** (a pIC50 value between 7.0 and 7.5 is indicated by four stars (****)) | 7.1945 | 7.1125
